Here are results for two compounds from article PMC2943038 (Chemical communications (Cambridge, England), 2010).

For orientation: IC50 means the concentration at which inhibition is half-maximal. As usually defined, the inhibition is how much of the control response was suppressed.

Like-named read-outs stand apart in the source and are kept apart here.

Experiment [1] addresses T1, PAD4 (Homo sapiens, UniProt Q9UM07). As to the kind of experiment: PAD4 inhibition/inactivation, residual activity measured with BAEE. Format: biochemical.
The subject of a further experiment is HL-60 granulocytes. As to the kind of experiment: histone H3 citrullination Western blot in HL-60 granulocytes. Format: cell-based. The conditions noted are these: anti-citrulline histone H3 Western blot, 1, 10, or 100 nM, dose dependent. For orientation: A western blot detects proteins with antibodies after separation by electrophoresis.
The subject of another experiment is MCF-7 cells. Description: histone H3 citrullination Western blot in MCF-7 cells. The conditions noted are these: MCF7 cells; anti-citrulline histone H3 Western blot; 1, 10, or 100 nM, dose dependent. The class given is cell-based.
Experiment [2] has as its target T2, PAD2 (Homo sapiens, UniProt Q9Y2J8). The conditions noted are these: PAD4 over PAD2, relative values of kinact/KI.
The target of experiment [3] is T2, PAD2. Description: biochemical.
The next experiment concerns the target T3, PAD3 (Homo sapiens, UniProt Q9ULW8).
T3 sequence (Q9ULW8 1-664): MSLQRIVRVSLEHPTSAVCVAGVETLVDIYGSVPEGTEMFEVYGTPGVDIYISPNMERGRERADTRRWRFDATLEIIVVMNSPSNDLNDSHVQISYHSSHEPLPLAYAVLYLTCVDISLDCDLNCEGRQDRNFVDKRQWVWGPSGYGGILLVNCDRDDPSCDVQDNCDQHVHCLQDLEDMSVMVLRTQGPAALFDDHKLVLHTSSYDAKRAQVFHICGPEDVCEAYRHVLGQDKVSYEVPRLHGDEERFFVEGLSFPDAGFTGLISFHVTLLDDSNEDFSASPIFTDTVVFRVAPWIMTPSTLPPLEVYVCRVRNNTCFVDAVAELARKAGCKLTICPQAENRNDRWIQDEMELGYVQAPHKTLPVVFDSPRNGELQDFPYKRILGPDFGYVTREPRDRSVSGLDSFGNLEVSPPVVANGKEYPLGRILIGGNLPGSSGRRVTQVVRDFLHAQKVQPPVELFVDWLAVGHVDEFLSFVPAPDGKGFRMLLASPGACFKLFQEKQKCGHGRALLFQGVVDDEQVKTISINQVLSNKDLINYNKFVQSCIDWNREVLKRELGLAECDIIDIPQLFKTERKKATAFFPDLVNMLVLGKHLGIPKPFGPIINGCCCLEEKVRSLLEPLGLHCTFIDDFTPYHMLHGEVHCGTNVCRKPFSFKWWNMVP
Description: biochemical.

For experiment [4], the target named is T1, PAD4. Description: fluopol-ABPP HTS.
Experiment [5] deals with T1, PAD4. Description: gel-based ABPP secondary screen.
The next experiment has as its target T4, PAD1 (Homo sapiens, UniProt Q9ULC6).
T4 sequence (Q9ULC6 1-663): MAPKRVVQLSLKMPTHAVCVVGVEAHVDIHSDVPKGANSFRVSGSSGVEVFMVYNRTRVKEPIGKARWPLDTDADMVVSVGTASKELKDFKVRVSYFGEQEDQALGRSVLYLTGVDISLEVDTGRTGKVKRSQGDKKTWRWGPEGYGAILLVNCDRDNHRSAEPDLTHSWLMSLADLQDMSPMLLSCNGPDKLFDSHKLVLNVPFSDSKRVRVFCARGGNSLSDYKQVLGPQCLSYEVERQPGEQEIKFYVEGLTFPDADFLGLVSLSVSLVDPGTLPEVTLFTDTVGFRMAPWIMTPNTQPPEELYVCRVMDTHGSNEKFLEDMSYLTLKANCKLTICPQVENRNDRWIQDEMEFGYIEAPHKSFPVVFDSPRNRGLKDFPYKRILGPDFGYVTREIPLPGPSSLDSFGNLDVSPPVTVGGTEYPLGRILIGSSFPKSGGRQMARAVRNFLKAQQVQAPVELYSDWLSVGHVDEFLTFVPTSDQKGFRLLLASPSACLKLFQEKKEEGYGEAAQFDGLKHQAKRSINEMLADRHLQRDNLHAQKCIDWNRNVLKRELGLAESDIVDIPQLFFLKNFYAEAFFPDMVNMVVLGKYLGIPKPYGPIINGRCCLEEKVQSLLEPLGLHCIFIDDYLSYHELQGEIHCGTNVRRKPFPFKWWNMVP
As to the kind of experiment: PAD1 inhibition/inactivation, residual activity measured with BAEE.

T1 sequence (Q9UM07 whole entry): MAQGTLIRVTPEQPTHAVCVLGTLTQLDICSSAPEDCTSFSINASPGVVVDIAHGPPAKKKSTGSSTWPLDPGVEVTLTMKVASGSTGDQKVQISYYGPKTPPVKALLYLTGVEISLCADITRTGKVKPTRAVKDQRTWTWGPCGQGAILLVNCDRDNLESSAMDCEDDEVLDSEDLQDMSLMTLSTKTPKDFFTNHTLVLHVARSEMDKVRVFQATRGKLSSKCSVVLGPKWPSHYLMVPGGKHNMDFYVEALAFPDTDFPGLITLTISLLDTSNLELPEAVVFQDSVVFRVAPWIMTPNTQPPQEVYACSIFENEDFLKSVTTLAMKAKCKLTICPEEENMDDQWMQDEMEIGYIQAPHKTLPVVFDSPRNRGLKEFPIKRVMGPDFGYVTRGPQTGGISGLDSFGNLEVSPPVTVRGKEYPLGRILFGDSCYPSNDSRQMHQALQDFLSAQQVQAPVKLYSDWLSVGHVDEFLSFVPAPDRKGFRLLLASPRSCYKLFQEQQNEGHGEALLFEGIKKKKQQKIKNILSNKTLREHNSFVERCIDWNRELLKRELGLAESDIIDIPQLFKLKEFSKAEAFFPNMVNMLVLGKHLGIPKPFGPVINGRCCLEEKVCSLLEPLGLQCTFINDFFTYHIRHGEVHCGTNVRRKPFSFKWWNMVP
T2 sequence (Q9Y2J8 whole entry): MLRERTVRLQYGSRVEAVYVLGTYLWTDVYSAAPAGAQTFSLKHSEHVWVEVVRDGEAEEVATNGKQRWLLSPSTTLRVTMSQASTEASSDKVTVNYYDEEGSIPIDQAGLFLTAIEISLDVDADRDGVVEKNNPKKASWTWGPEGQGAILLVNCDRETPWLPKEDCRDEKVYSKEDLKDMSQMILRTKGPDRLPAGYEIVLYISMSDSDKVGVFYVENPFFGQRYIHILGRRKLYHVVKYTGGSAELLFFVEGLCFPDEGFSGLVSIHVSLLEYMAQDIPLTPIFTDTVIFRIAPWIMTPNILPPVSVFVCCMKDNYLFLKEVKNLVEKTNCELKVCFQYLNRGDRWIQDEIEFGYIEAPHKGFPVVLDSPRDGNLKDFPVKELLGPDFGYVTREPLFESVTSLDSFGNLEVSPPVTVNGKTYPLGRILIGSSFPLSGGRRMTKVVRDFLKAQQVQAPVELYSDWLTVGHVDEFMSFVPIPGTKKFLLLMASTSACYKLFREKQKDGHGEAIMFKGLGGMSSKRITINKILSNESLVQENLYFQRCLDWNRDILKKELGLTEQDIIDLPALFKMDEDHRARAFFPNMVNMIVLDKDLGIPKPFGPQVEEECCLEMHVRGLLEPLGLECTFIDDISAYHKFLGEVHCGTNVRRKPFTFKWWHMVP

`COC1=C(N)C(=O)c2nc(-c3nc(C(=O)O)c(C)c(-c4ccc(OC)c(OC)c4O)c3N)ccc2C1=O` [NIH6, streptonigrin]: the IC50 against PAD4 [1] was determined as 1.87 ± 0.24 µM. The Ki at PAD4 [1] came to 8.5 ± 4.3 µM; on PAD2 [3] it was 17 ± 5.8 µM; at PAD3 it was 49 ± 34 µM; on PAD1, 11 ± 7 µM. In addition, at PAD4 [1] (incubated with PAD4 for 30 min, dialyzed overnight (~20 h)), the “PAD4 activity recovered after dialysis (reversibility)” value is recorded as “no PAD4 activity was recovered”. For the same compound, the “concentration that reduced levels of citrullinated histone H3” value in the experiment with HL-60 granulocytes and with MCF-7 cells was no more than 1 nM each time. For the same compound, the Fold selectivity at PAD2 [2] stood at 37 fold. The inhibition at 5 µM on PAD4 [4] (read-out: % Inhibition (library screen)) was 92.5%. For the same compound, the inhibition at 10 µM at PAD4 [5] (read-out: % Inhibition (Gel based ABPP)) came out at 93.9%.
As to `Cc1ccc(S(=O)(=O)N[C@@H](Cc2ccccc2)C(=O)CCl)cc1` [NIH5, tosyl phenylalanyl chloromethyl ketone], the IC50 on PAD4 [1] (read-out: IC50 for PAD4, Table 1, hits of the HTS) came out at 13 ± 2 µM. Besides, the “% Inhibition (library screen)” value on PAD4 [4] (5 μM compound final, 2 μM PAD4, 75 nM RFA, 300 min) came out at 39.7%. Besides, at PAD4 [5] (10 μM final, inhibition of RFA labeling of PAD4), the “% Inhibition (Gel based ABPP)” value was found to be 12.9%.
